# Source: US20110104186A1, “Small molecule immunopotentiators and assays for their detection” (priority 2004, published 2011)
# System: TNF-α production
# Assay: In vitro inhibition of TNF-α production by 1H-imidazoquinolines
# Format: cell-based
row,IC50 [µM],Compound
1,> 10,COc1cccc(C(=O)N2CCc3cc(OC)c(OC)cc3C2C)c1 (stereo not drawn) [Example 22]
2,1.38,"CCOc1ccccc1C(=O)N1CCN(c2cccc(Cl)c2)CC1 [Example 14, 1-(3-chlorophenyl)-4-{[2-(ethyloxy)phenyl]carbonyl}-piperazine]"
3,> 10,"3-pentyl-7-[(4-phenylpiperazin-1-yl)carbonyl]-2-thioxo-2,3-dihydroquinazolin-4(1H)-one [Example 18]"
4,8.02,"1-[2-(methyloxy)phenyl]-4-{[3,4,5-tris(methyloxy)phenyl]carbonyl} piperazine [Example 16]"
5,3.66,1-[(3-fluorophenyl)carbonyl]-4-{[4-(trifluoromethyl)phenyl] methyl}piperazine [Example 12]

row,Compound,IC50 [µM]
1,3-({4-[(2E)-3-phenylprop-2-enyl]piperazin-1-yl}carbonyl)-7-oxabicyclo[2.2.1]heptane-2-carboxylic acid [Example 15],3.68
2,"4-({2-[(4-chlorophenyl)amino]-1-methyl-1H-benzimidazol-5-yl}oxy)-N-1,3-thiazol-2-ylpyridine-2-carboxamide [Example 9]",0.205
3,"CNC(=O)c1cc(Oc2ccc3[nH]c(Nc4ccccc4C(C)C)nc3c2)ccn1 [Example 2, N-methyl-4-[(2-{[2-(1-methylethyl)phenyl]amino}-1H-benzimidazol-5-yl)oxy]pyridine-2-carboxamide]",4.81
4,3-[(4-pyridin-2-ylpiperazin-1-yl)carbonyl]-7-oxabicyclo[2.2.1]heptane-2-carboxylic acid [Example 17],2.67
